The source of these data is paper PMC6511062, “Preclinical candidate for the treatment of visceral leishmaniasis that acts through proteasome inhibition” (Proceedings of the National Academy of Sciences of the …, 2019).

≈ marks a conversion by molar mass, not a printed value. Bounds are passed on as bounds.

The test system of data set [1] is L. donovani promastigotes. The data set is described as follows: microbe, parasite or virus in culture. Format: cell-based, Leishmania donovani. The protocol:
9. Mode of action studies a. Cell lines and culture conditions […]
c. Generation of drug-resistant parasites […]
donovani in the continuous presence of this compound. Starting at a sub-lethal […]
After a total of 120 days in
Genomic DNA was harvested from three independently generated L. donovani resistant clones and an age match control, as previously described27. PCR was performed using Platinum PCR Supermix (Invitrogen), as per manufacturer’s […]
generated using primers SubunitB4FW and SubunitB4RV, then sequenced using primer SubunitB4FW (Table S6). To sequence the β5 subunit (LdBPK_361730.1), an […]
sequenced using primer SubunitB5FW. PCR amplification and DNA sequencing were performed in triplicate for each independently generated cell line. The Leishmania donovani BPK282A1 sequences of the two subunits were identified in TriTrypDB and […]
e. Generation of overexpression constructs and LdBOB transgenic cell lines The genes encoding the mutated versions of the β4 (LdBPK_360340.1) and the β5 […]
parasites, were synthesised (GeneArt, Thermo Fischer Scientific). The synthetic genes, flanked by BamHI sites were cloned into the equivalent site of pIR1-SAT. The accuracy of all assembled constructs was verified by sequencing.
Mid-log-phase L. donovani promastigotes (LdBOB) were transfected with overexpression constructs using the Human T-Cell Nucleofector kit and the Amaxa Nucleofector electroporator (program V-033). Following transfection, cells were […]
to appropriate drug selection (100 µg/mL nourseothricin). Cloned cell lines were […]
selection for one passage prior to experiments. […]

Data set [2] concerns L. donovani intramacrophage amastigotes. The data set is described as follows: L. donovani intramacrophage assay (amastigotes in differentiated THP-1 cells). Format: cell-based, Leishmania donovani. Conditions: Leishmania donovani; L. donovani amastigotes in differentiated THP-1 cells; read-out: Intramacrophage EC50. Here is the method: T. cruzi4, Leishmania donovani axenic amastigote, cidal axenic amastigote and intra-
macrophage drug sensitivity assays were conducted as previously described5,6. […]
5. Intrinsic clearance (CLint) […]
6. Pharmacokinetic studies. […]

The nature of data set [3]: CAD (charged aerosol detector) solubility.
The subject of data set [4] is THP-1 cells. The data set is described as follows: Mammalian cell growth inhibition (THP-1). The note with it: Homo sapiens. Format: cell-based. The text has this: We hypothesized that, in view of their structural similarity, 1 and 2 probably shared the same mechanism of action.
Data set [5] is described as follows: Solubility in fasted simulated intestinal fluid (FaSSIF). The note with it: fasted simulated intestinal fluid (FaSSIF), fassif.
Data set [6] concerns L. donovani (LV9). Nature of the data set: Mouse model of VL (in vivo efficacy in female Balb/C mice). On the set-up: species or system Leishmania donovani. Conditions: 50 mg/kg b.i.d. (10 days PO).
A short description of data set [7]: Intrinsic clearance in mouse liver microsomes. Format: in vitro ADME. Here is the method: page 13: 4. Parasite assays T. cruzi4, Leishmania donovani axenic amastigote, cidal axenic amastigote and intra- macrophage drug sensitivity assays were conducted as previously described5,6. a. […] Instead of a single readout at 72 h, multiple identical plates were used and read at different time points (24, 48, 72 h). Rate of kill curves showing the luminescence signal at each time point for each concentration were plotted. 5. […] The rate of intrinsic clearance (CLint) of each test compound was then calculated using the following calculation: CLint(mL/min/g liver) = k x V x Microsomal protein yield Where V (mL/mg protein) is the incubation volume/mg protein added and microsomal protein yield is taken as 52.5 mg protein/g liver. Verapamil (0.5 μM) was used as a positive control to confirm acceptable assay performance. 6. Pharmacokinetic studies. a. Mouse and dog PK Mouse pharmacokinetic studies were conducted in male CD-1 mice and male beagle dogs. 3 animals per group were used for each study performed. A dose of 3 mg/kg was administered intravenously, in a bolus form to mice and infused over a 30 min period to dogs. For all the intravenous studies compound were dissolved in 5% DMSO/20% kleptose in saline. A dose of 10 mg/kg was orally administered by gavage to the two species in a suspension of 1% methylcellulose to investigate oral pharmacokinetics. S13

Data set [8] has as its system bloodstream T. brucei. Nature of the data set: T. brucei stem-loop RNAi knock-down lines, drug sensitivity. Format: cell-based, Trypanosoma brucei. Conditions: for EC50: Trypanosoma brucei. Here is the method: f. T. brucei RNAi constructs and cell lines
PCR primers (Table S6) were designed using RNAit28 to generate a 500-bp fragment conferring specific knockdown to Tb927.8.6620 (Table S7) and a 543-bp fragment of Tb927.9.15260 PCR fragments were cloned in the pRPaSLi construct for the generation of stem-loop dsRNA under the control of tetracycline as the trigger for RNAi28,29. Constructs were digested with AscI, EtOH-precipitated, and resuspended ([…]) in sterile water. 2T1 strains, containing a tetracycline repressor, were electroporated using program X-001 of the Nucleofector II electroporator (Amaxa, Cologne, Germany)30 following the addition of 5 µg of linearized DNA mixed in 100 µL of cytomix31. Transformants were cloned by limiting dilution under phleomycin (1 µg/mL) and hygromycin (2.5 µg/mL) selection. Puromycin susceptibility (1 µg/mL) was tested for full integration of the construct and expression of stem-loop RNAi was induced with concentrations of tetracycline ranging from […].
T. brucei RNA was isolated using an RNeasy purification kit (Qiagen) and cDNA-synthesized using a high capacity RNA-to-cDNA kit (Applied Biosystems). PCR primers (Table S6) were designed using the Premierbiosoft's Beacon Designer 6. qRT-PCRs […]
knock-down bloodstream trypanosomes. Transcript levels in trypanosomes where RNAi was induced by the addition of tetracycline (1 µg/mL, 24 h) were compared to wild-type (uninduced) levels. Relative levels of cDNA were normalized using the reference gene TERT (Tb927.11.10190, telomerase reverse transcriptase).
Compound 7, nM Compound 7, nM
Figure S4. Dose-response curves for compound 7 against cell lines where […]
(open circles) and induced (closed circles), respectively. […]
and 8.7 ± 0.3 nM for Tb927.8.6620RNAi uninduced (open circles) and induced (closed circles), respectively. Results are the means standard deviations of data from three […]

Setting [9] is: Leishmania donovani, RES II-resistant cells.
Where [10] appears, read: Leishmania donovani, WT promastigotes.

As for `O=C(Nc1ccc(F)c(-c2ccn3c(N4CCOCC4)cnc3n2)c1)N1CCCC1` [Compound 8], the EC50 was more than 1000 nM in data set [1] (setting [9]); 14.6 ± 0.3 nM in data set [1] (setting [10]); 14 nM in data set [1] (WT promastigotes); 1600 nM in data set [2]; more than 50000 nM in data set [4]. Besides, the results for the solubility in data set [3] and in data set [5] were 231 µg/mL (≈ 563 µM) and 180 µg/mL (≈ 439 µM), respectively. In addition, the “Reduction in parasite burden (compared to the vehicle control group)” value in data set [6] worked out at 99.1%. For the same compound, in data set [7], the CLint is listed as 0.77 mL/min/g. Also, the “CLint (intrinsic clearance when incubated with mouse liver microsomes)” value in data set [7] is 0.8 mL/min per gram.

On to `O=C(Nc1ccc(F)c(-c2cn3nc(-c4ccccc4)cnc3n2)c1)N1CCCC1` [Compound 7], for which the EC50 was more than 1000 nM in data set [1] (setting [9]); 3.5 ± 0.09 nM in data set [1] (setting [10]); 9.4 ± 0.14 nM in data set [1] (Leishmania donovani, WT, overexpression experiment (Fig. 3D)); 11.2 ± 0.2 nM in data set [1] (Leishmania donovani, β4MUT cells (overexpressing β4 T30A)); 37.6 ± 0.6 nM in data set [1] (Leishmania donovani, β5MUT cells (overexpressing β5 G197C)); 8.7 ± 0.3 nM in data set [8] (Tb927.8.6620 RNAi induced). The EC50 in data set [8] (Tb927.8.6620 RNAi uninduced) was 4.2 ± 0.2 nM; in data set [8] (Tb927.9.15260 RNAi induced), 8 ± 0.4 nM; in data set [8] (Tb927.9.15260 RNAi uninduced), 4.1 ± 0.2 nM; in data set [2] it was 350 nM; in data set [4], more than 50000 nM. The “resistance of compound 7-resistant clones” value in data set [1] (resistant clones vs WT) is listed as more than 100 fold. Moreover, in data set [1] (β5 G197C overexpression vs WT), the “reduction of susceptibility on overexpression of mutated β5 subunit” value is “fourfold”. Moreover, the “resistance conferred by RNAi knockdown” value in data set [8] (knockdown of Tb927.9.15260 and Tb927.8.6620) is “approximately twofold”. Further, the solubility is 7 µg/mL (≈ 17.4 µM) in data set [3] and 1 µg/mL (≈ 2.48 µM) in data set [5]. In addition, the CLint in data set [7] is reported as 1.7 mL/min/g.

As usually defined, the EC50 is the concentration giving half of the maximal effect. The term solubility denotes how much of the substance goes into solution per volume. Lower therefore signals little dissolved substance.
